Values of other authors in patent publication US8273685B2, “Agrochemical composition” (Nippon Soda Co., Ltd., priority 2006, dated 2012).

Conditions: 1-octanol/water

Structure (SMILES) | Log P
Cc1c(F)c(F)c(COC(=O)[C@@H]2[C@H](/C=C(\Cl)C(F)(F)F)C2(C)C)c(F)c1F (racemic) [Tefluthrin, 2,3,5,6-tetrafluoro-4-methylbenzyl (1RS,3RS)-3-[(Z)-2-chloro-3,3,3-trifluoroprop-1-enyl]-2,2-dimethylcyclopropanecarboxylat] | 6.5
O=C(NC(=O)c1c(F)cccc1F)Nc1cc(Cl)c(OC(F)(F)C(F)F)c(Cl)c1 [Hexaflumuron, 1-[3,5-dichloro-4-(1,1,2,2-tetrafluoroethoxy)phenyl]-3-(2,6-difluorobenzoyl)urea] | 4.68
COC(=O)c1c(C(F)F)nc(C(F)(F)F)c(C2=NCCS2)c1CC(C)C [Thiazopyr, methyl 2-difluoromethyl-5-(4,5-dihydro-1,3-triazol-2-yl)-4-isobutyl-6-trifluoromethylnicotinate] | 3.89
O=C(NC(=O)c1c(F)cccc1F)Nc1ccc(Cl)c(Oc2ncc(C(F)(F)F)cc2Cl)c1 [Fluazuron, 1-[4-chloro-3-(3-chloro-5-trifluoromethyl-2-pyridyloxy)phenyl]-3-(2,6-difluorobenzoyl)urea] | 5.1
CCN(Cc1c(F)cccc1Cl)c1c([N+](=O)[O-])cc(C(F)(F)F)cc1[N+](=O)[O-] [Flumetralin, N-(2-chloro-6-fluorobenzyl)-N-ethyl-alpha,alpha,alpha-trifluoro-2,6-dinitro-p-toluidine] | > 3
